Common to all, as to assay: NCI tumour cell line growth inhibition, 48 h
Test [1] relates to HOP-92 NSCLC.
In test [2] the test system is IGROV1 ovarian.
Test [3] deals with K-562 leukemia.
Test [4] relates to LOX IMVI melanoma.
The subject of test [5] is MALME-3M melanoma.
The test system of test [6] is MDA-MB-231 breast.
The test system of test [7] is NCI-H226 lung.
For test [8], the system named is T-47D breast.
Test [9] concerns U251 CNS.
Test [10] concerns UACC-257 melanoma.

“And” between values parts separate entries of the source, which are not always exact repeats. Equal entries are not always repeated.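 Tested at 5 concentrations; 48 h exposure; 96-well plates; endpoints linearly interpolated, else capped at highest concentration. GI50: concentration for 50% inhibition of growth. TGI: total growth inhibition.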

As to `Oc1[nH]c2ccc(Br)cc2c1N=NC(=S)Nc1ccc(F)cc1`, the TGI in test [1] came out at 16.3 µM; in test [2], 23.2 µM; in test [3] it was 67.3 µM; in [4], 27.1 µM; in test [5] it was 23.8 µM; in test [6], 35.5 µM. Besides, the TGI stood at 40.1 µM in test [7], 35.4 µM in test [8], 18.5 µM in test [9] and 43 µM in test [10].
For `CNc1ncnc2c1cnn2COCC(O)CO` (configuration not stated), the TGI in [1], in test [2], in test [3], in test [4], in test [5] and in test [6] was over 100 µM throughout. Further, the TGI in test [7], in [8], in [9] and in test [10] was over 100 µM in each case.
Consider `C=CCNC(=S)N=Nc1c(O)[nH]c2ccc([N+](=O)[O-])cc12`, for which the TGI in test [1], in [2], in test [3], in test [4], in test [5] and in [6] was over 100 µM throughout. The TGI is over 100 µM in test [7], 87.4 µM in test [8], over 100 µM in test [9] and over 100 µM in test [10].
Regarding `COC(C)(C)[C@@H](O)[C@H]1C[C@H](C)[C@@]2(CC[C@]3(C)[C@@H]2CC[C@@H]2[C@@]4(C)CC[C@@H](OC(C)=O)C(C)(C)[C@@H]4C[C@@H](OC4OC(COC(C)=O)C(O)C(O)C4O)[C@]23C)O1` (some centres not stated), the TGI in [1] was determined as 17.6 µM; in test [2], 16.6 µM; in test [3], 21.3 µM; in [4] it was 14.9 µM; in test [5] it was 23.4 µM; in test [6], 24.9 µM. Besides, the TGI in [7] turned out to be 17.5 µM; in [8], 15.1 µM; in test [9], 18.5 µM; in [10], 20.9 µM.
For `Cc1cn(-c2cc(C(=O)Nc3cccc(-n4ccc5c(NC(=O)c6ccccc6)nccc54)c3)cc(C(F)(F)F)c2)cn1`, the GI50 in test [1] was 0.39 µM; in test [2] it was 0.6 µM; in test [3], 0.292 µM; in test [4] it was 0.379 µM; in [5], 0.502 µM; in test [6], 0.68 µM. Besides, the GI50 was 0.524 µM in [7], 1.9 µM in test [8], 0.29 µM in test [9] and 0.51 µM in [10]. Moreover, the TGI in [1] amounted to 6.49 µM; in test [2], 23 µM; in test [4], 2.07 µM; in test [5], 9.66 µM; in [6] it was 3.62 µM; in test [7], 17.1 µM. For the same molecule, the results for the TGI in test [8], in test [9] and in test [10] were 24.2 µM, 1.48 µM and 19.7 µM, respectively.
For `CC(=O)O[C@H]1C(=O)[C@@]2(C)[C@H]([C@H](OC(=O)c3ccc(F)cc3)[C@]3(O)C[C@H](OC(=O)[C@H](O)[C@@H](NC(=O)c4ccccc4)c4ccccc4)C(C)=C1C3(C)C)[C@]1(OC(C)=O)CO[C@@H]1C[C@@H]2O`, the TGI in [1] was over 25 µM; in test [2], over 25 µM; in test [3], 0.172 µM; in test [4] it was 5.56 µM; in [5] it was over 25 µM; in [6] it was over 25 µM. Besides, the TGI in [7] was over 25 µM; in [8] it was over 9.63 µM; in test [9], 0.738 µM; in test [10], over 25 µM.
`COC(=O)c1cc2c(cc1CC1Cc3cc4c(cc3C1)CCC4)CCC2`: the TGI in test [1] is 98.9 µM; in test [2] it was over 100 µM; in [3] it was over 100 µM; in test [4], 55 µM; in test [5], over 100 µM; in [6] it was over 100 µM. Besides, the TGI was over 100 µM in test [7], over 100 µM in test [8], over 100 µM in [9] and 80.9 µM in test [10].
Regarding `COC(=O)CCc1cc(OC)c2c(c1)[C@H](C(=O)OC)[C@@H](c1ccc(O)c(OC)c1)O2`, the TGI in test [1] was over 100 µM; in [2] it was over 100 µM; in [3] it was 50.4 µM; in test [4], over 100 µM; in test [5], over 100 µM; in test [6], over 100 µM. Also, the TGI in [7], in test [8], in test [9] and in [10] was over 100 µM in each case.
`COc1nc2ncc([C@@H](OC(C)=O)[C@@H](COC(C)=O)OC(C)=O)nc2c(=O)[nH]1`: the GI50 in [1] was > 100 µM and 32.8 µM. In addition, the TGI in test [1], in test [2], in test [3], in [4], in test [5] and in test [6] was over 100 µM throughout. Further, the TGI in test [7], in test [8], in test [9] and in test [10] was over 100 µM throughout.
For the molecule `ClC(Cl)=C1C(=C(Cl)Cl)C(Cl)(Cl)C1(Cl)Cl`, the TGI in test [1] was 4.5 µM; in test [2] it was 18.9 µM; in test [3], 5.62 µM; in [4], 0.579 µM and 1.86 µM; in test [5], 5.9 µM; in [6], 4.81 µM. Moreover, the TGI in test [7] was 1.89 µM; in test [8] it was 23.6 µM; in test [9], 13.9 µM; in test [10], 12.9 µM. Moreover, the GI50 was 0.532 µM in test [3] and 0.422 µM in test [7].
